The results in this text go back to patent publication US12606572B2, “Substituted heterocycles and uses thereof” (Kumquat Biosciences Inc., priority 2023, dated 2026).

What is called IC50 is the concentration that inhibits the measured activity by half.

One experiment has as its target T1, KRAS WT (Homo sapiens, UniProt P01116).
T1 construct: made in house; host or cells: E. coli BL21 (DE3)
As to the kind of experiment: HTRF assay, interaction of GST-tagged K-Ras with His-tagged hSOS1 (KRAS wildtype). The conditions noted are these: <500 nM, read-out: Inhibition of KRAS WT (IC50). The experiment is classed as biochemical. From the text:
(§1) This assay can be also used to assess a selective inhibition or reduction of signaling output of a mutant Ras protein relative to a wildtype, or relative to a different mutant Ras protein. For example, the equilibrium interaction of wildtype KRAS or K-Ras mutant (e.g., wildtype or a mutant thereof) with SOS1 (e.g., hSOS1) can be assessed as a proxy or an indication for the ability of a subject compound to bind and inhibit Ras protein. The HTRF assay detects from (i) a fluorescence resonance energy transfer (FRET) donor (e.g., antiGST-Europium) that is bound to GST-tagged K-Ras mutant to (ii) a FRET acceptor (e.g., anti-6His-XL665) bound to a His-tagged hSOS1.
(§2) The assay buffer can contain ˜5 mM HEPES pH 7.4, ˜150 mM NaCl, ˜1 mM DTT, 0.05% BSA and 0.0025% (v/v) Igepal. A Ras working solution is prepared in an assay buffer containing typically a suitable amount of the protein construct (e.g., GST-tagged K-Ras mutant) and the FRET donor (e.g., antiGST-Eu(K) from Cisbio, France). A SOS1 working solution is prepared in an assay buffer containing suitable amount of the protein construct (e.g., His-hSOS1) and the FRET acceptor (e.g., anti-6His-XL665 from Cisbio, France). A suitable amount of the protein construct will depend on the range of activity or range of IC50 values being detected or under investigation. For detecting an IC50 within a range of 500 nM, the protein constructs of the same range of molarity can be utilized.
(§3) A fixed volume of DMSO with or without test compound is transferred into a 384-well plate. Ras working solution is added to all wells of the test plate. SOS1 working solution is added to all wells except for those that are subsequently filled with inhibitor control solution. Upon incubation for about 10 minutes or longer, the fluorescence is measured with a M1000Pro plate reader (Tecan) using HTRF detection (excitation 337 nm, emission 1: 620 nm, emission 2: 665 nm). Compounds are tested in duplicate at different concentrations (for example, 10 μM, 2.5 μM, 0.63 μM, 0.16 μM, 0.04 μM, 0.01 μM test compound). The ratiometric data (i.e., emission 2 divided by emission 1) is used to calculate IC50 values against Ras using GraphPad Prism (GraphPad software). Signaling output measured in terms of IC50 values can be obtained and a ratio of IC50 against one mutant relative to another mutant can be calculated. For instance, a selective reduction of K-Ras G12S signaling output can be evidenced by a ratio greater than one. In particular, a selective reduction of K-Ras G12S signaling relative to K-Ras WT signaling is evidenced if the ratio of IC50 (against K-Ras WT) to IC50 (against K-Ras G12S) is greater than 1.
(In TR-FRET formats the signal depends on donor and acceptor labels being close together.)

A further experiment has as its target T2, KRAS G12S (Homo sapiens, UniProt P01116, G12S).
T2 construct: made in house; host or cells: E. coli BL21 (DE3)
As to the kind of experiment: HTRF assay, interaction of GST-tagged K-Ras with His-tagged hSOS1 (KRAS G12S). The experiment is classed as biochemical. The conditions noted are these: <500 nM, read-out: Inhibition of KRAS G12S (IC50).
Text: as §1, §2, §3

T2 sequence (P01116 1-188 isoform P01116-2 G12S): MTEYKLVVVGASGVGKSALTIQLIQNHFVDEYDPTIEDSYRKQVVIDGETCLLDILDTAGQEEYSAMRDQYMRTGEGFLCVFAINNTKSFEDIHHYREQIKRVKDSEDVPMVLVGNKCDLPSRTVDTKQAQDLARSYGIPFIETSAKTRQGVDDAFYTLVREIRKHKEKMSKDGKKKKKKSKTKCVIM
T1 sequence (P01116 1-188 isoform P01116-2): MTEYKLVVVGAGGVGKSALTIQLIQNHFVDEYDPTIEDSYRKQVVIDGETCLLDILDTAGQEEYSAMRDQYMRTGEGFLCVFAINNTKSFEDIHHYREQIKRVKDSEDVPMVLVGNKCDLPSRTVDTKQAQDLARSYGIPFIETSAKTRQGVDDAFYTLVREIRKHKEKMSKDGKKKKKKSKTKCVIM

Take `C[C@H](O)[C@H]1COc2c(Cl)c(-c3ccc(F)c4sc(N)c(C#N)c34)c(F)c3nc(OC[C@@]45CCCN4C[C@H](F)C5)nc(c23)N1C1CC(N(C)C(=O)n2ccnc2)C1` (stereo partly drawn) [Compound 428, N-(3-((5R)-9-(2-amino-3-cyano-7-fluorobenzo[b]thiophen-4-yl)-8-chloro-10-fluoro-2-(((2R,7aS)-2-fluorotetrahydro-1H-pyrrolizin-7a(5H)-yl)methoxy)-5-((S)-1-hydroxyethyl)-5,6-dihydro-4H-[1,4]oxazepino [5,6,7-de]quinazolin-4-yl)cyclobutyl)-N-methyl-1H-imidazole-1-carboxamide]: the half-maximal inhibitory concentration (IC50) on KRAS WT and on KRAS G12S was under 500 nM in each case.
Regarding `C=CC(=O)N1CC(CN2CCOc3c(Cl)c(-c4ccc(F)c5sc(N)c(C#N)c45)c(F)c4nc(OC[C@@]56CCCN5C[C@H](F)C6)nc2c34)C1` [Compound 466, 4-(4-((1-acryloylazetidin-3-yl)methyl)-8-chloro-10-fluoro-2-(((2R,7aS)-2-fluorotetrahydro-1H-pyrrolizin-7a(5H)-yl)methoxy)-5,6-dihydro-4H-[1,4]oxazepino[5,6,7-de]quinazolin-9-yl)-2-amino-7-fluorobenzo[b]thiophene-3-carbonitrile], the half-maximal inhibitory concentration (IC50) at KRAS WT and on KRAS G12S was under 500 nM each time.
Regarding `N#Cc1c(N)sc2c(F)ccc(-c3c(Cl)c4c5c(nc(OC[C@@]67CCCN6C[C@H](F)C7)nc5c3F)N(CC3CN(C(=O)C5=CCCC5)C3)CCO4)c12` [Compound 462, 2-amino-4-(8-chloro-4-((1-(cyclopent-1-ene-1-carbonyl)azetidin-3-yl)methyl)-10-fluoro-2-(((2R,7aS)-2-fluorotetrahydro-1H-pyrrolizin-7a(5H)-yl)methoxy)-5,6-dihydro-4H-[1,4]oxazepino [5,6,7-de]quinazolin-9-yl)-7-fluorobenzo[b]thiophene-3-carbonitrile], the IC50 at KRAS WT and on KRAS G12S was under 500 nM in each case.
Take `C[C@H](O)[C@H]1COc2c(Cl)c(-c3ccc(F)c4sc(N)c(C#N)c34)c(F)c3nc(OC[C@@]45CCCN4C[C@H](F)C5)nc(c23)N1C[C@@H]1CN(C(=O)n2ccnc2)[C@@H]1C` (single isomer, unassigned) [Compound 446]: the IC50 at KRAS WT and at KRAS G12S was under 500 nM throughout.
Take `Cc1cn(C(=O)N2CC[C@@H](N3CCOc4nc(-c5cc(N)c(F)c(C)c5C(F)(F)F)c(F)c5nc(OC[C@@]67CCCN6C[C@H](F)C7)nc3c45)[C@H]2C)c(C)n1` [Compound 487, ((2R,3R)-3-(5-(5-amino-4-fluoro-3-methyl-2-(trifluoromethyl)phenyl)-4-fluoro-2-(((2R,7aS)-2-fluorotetrahydro-1H-pyrrolizin-7a(5H)-yl)methoxy)-8,9-dihydro-10H-7-oxa-1,3,6,10-tetraazacyclohepta[de]naphthalen-10-yl)-2-methylpyrrolidin-1-yl)(2,4-dimethyl-1H-imidazol-1-yl) methanone]: the IC50 on KRAS WT and at KRAS G12S was under 500 nM in each case.
For the molecule `C=C(C(=O)N1CC(CN2CCOc3c(Cl)c(-c4ccc(F)c5sc(N)c(C#N)c45)c(F)c4nc(OC[C@@]56CCCN5C[C@H](F)C6)nc2c34)C1)C1CC1` [Compound 447, 2-amino-4-(8-chloro-4-((1-(2-cyclopropylacryloyl)azetidin-3-yl)methyl)-10-fluoro-2-(((2R,7aS)-2-fluorotetrahydro-1H-pyrrolizin-7a(5H)-yl)methoxy)-5,6-dihydro-4H-[1,4]oxazepino [5,6,7-de]quinazolin-9-yl)-7-fluorobenzo[b]thiophene-3-carbonitrile], the 50% inhibitory concentration (IC50) at KRAS WT and on KRAS G12S was under 500 nM in each case.
Regarding `C[C@H](O)[C@H]1COc2c(Cl)c(-c3ccc(F)c4sc(N)c(C#N)c34)c(F)c3nc(OC[C@@]45CCCN4C[C@H](F)C5)nc(c23)N1C[C@H]1CN(C(=O)n2ccnc2)[C@@H]1C` (single isomer, unassigned) [Compound 402], the IC50 at KRAS WT and at KRAS G12S was under 500 nM in each case.
Turning to `Cc1cn(C(=O)N(C)[C@@H]2C[C@@H]3CCOc4c(Cl)c(-c5ccc(F)c6sc(N)c(C#N)c56)c(F)c5nc(OC[C@@]67CCCN6C[C@H](F)C7)nc(c45)N3C2)cn1` (single isomer, unassigned) [Compound 472], the IC50 on KRAS WT and at KRAS G12S was under 500 nM each time.
`CC1([C@@H]2[C@H](CN3CCOc4c(Cl)c(-c5ccc(F)c6sc(N)c(C#N)c56)c(F)c5nc(OC[C@@]67CCCN6C[C@H](F)C7)nc3c45)CN2C(=O)n2cnc(F)n2)CC1` (single isomer, unassigned) [Compound 420]: the IC50 on KRAS WT and on KRAS G12S was under 500 nM throughout.
As to `C[C@@H]1C(CN2CCOc3c(Cl)c(-c4ccc(F)c5sc(N)c(C#N)c45)c(F)c4nc(OC[C@@]56CCCN5C[C@H](F)C6)nc2c34)CN1C(=O)n1ccnc1` (stereo partly drawn) [Compound 413, 4-(4-(((2R)-1-(1H-imidazole-1-carbonyl)-2-methylazetidin-3-yl)methyl)-8-chloro-10-fluoro-2-(((2R,7aS)-2-fluorotetrahydro-1H-pyrrolizin-7a(5H)-yl)methoxy)-5,6-dihydro-4H-[1,4]oxazepino[5,6,7-de]quinazolin-9-yl)-2-amino-7-fluorobenzo[b]thiophene-3-carbonitrile], the IC50 at KRAS WT and at KRAS G12S was under 500 nM in each case.
`Cc1cn(C(=O)N2CC[C@@H](N3CCCCc4nc(-c5cc(N)c(F)c(C)c5C(F)(F)F)c(F)c5nc(OC[C@@]67CCCN6C[C@H](F)C7)nc3c45)[C@H]2C)c(C)n1` [Compound 438, ((2R,3R)-3-(5-(5-amino-4-fluoro-3-methyl-2-(trifluoromethyl)phenyl)-4-fluoro-2-(((2R,7aS)-2-fluorotetrahydro-1H-pyrrolizin-7a(5H)-yl)methoxy)-7,8,9,10-tetrahydro-11H-1,3,6,11-tetraazacycloocta[de]naphthalen-11-yl)-2-methylpyrrolidin-1-yl)(2,4-dimethyl-1H-imidazol-1-yl)methanone]: the IC50 on KRAS WT and at KRAS G12S was under 500 nM in each case.
`C/C(C#N)=C/C(=O)N1CC(CN2CCOc3c(Cl)c(-c4ccc(F)c5sc(N)c(C#N)c45)c(F)c4nc(OC[C@@]56CCCN5C[C@H](F)C6)nc2c34)C1` [Compound 459, 2-amino-4-(8-chloro-4-((1-((Z)-3-cyanobut-2-enoyl)azetidin-3-yl)methyl)-10-fluoro-2-(((2R, 7aS)-2-fluorotetrahydro-1H-pyrrolizin-7a(5H)-yl)methoxy)-5,6-dihydro-4H-[1,4]oxazepino[5,6,7-de]quinazolin-9-yl)-7-fluorobenzo [b]thiophene-3-carbonitrile]: the IC50 at KRAS WT and at KRAS G12S was under 500 nM in each case.
On to `C[C@@H]1[C@H](N2CCCOc3c(Cl)c(-c4ccc(F)c5sc(N)c(C#N)c45)c(F)c4nc(OC[C@@]56CCCN5C[C@H](F)C6)nc2c34)CCN1C(=O)n1ccnc1` [Compound 481, 4-(4-((2R,3R)-1-(1H-imidazole-1-carbonyl)-2-methylpyrrolidin-3-yl)-9-chloro-11-fluoro-2-(((2R,7aS)-2-fluorotetrahydro-1H-pyrrolizin-7a(5H)-yl)methoxy)-4,5,6,7-tetrahydro-[1,5]oxazocino[4,3,2-de]quinazolin-10-yl)-2-amino-7-fluorobenzo[b]thiophene-3-carbonitrile], for which the IC50 at KRAS WT and at KRAS G12S was under 500 nM throughout.
Turning to `Cc1cn(C(=O)N2CC[C@@H](N3C[C@H](C)Oc4nc(-c5cc(N)c(F)c(C)c5C(F)(F)F)c(F)c5nc(OC[C@@]67CCCN6C[C@H](F)C7)nc3c45)[C@H]2C)c(C)n1` [Compound 430, ((2R,3R)-3-((S)-5-(5-amino-4-fluoro-3-methyl-2-(trifluoromethyl)phenyl)-4-fluoro-2-(((2R,7aS)-2-fluorotetrahydro-1H-pyrrolizin-7a(5H)-yl)methoxy)-8-methyl-8,9-dihydro-10H-7-oxa-1,3,6,10-tetraazacyclohepta [de]naphthalen-10-yl)-2-methylpyrrolidin-1-yl)(2,4-dimethyl-1H-imidazol-1-yl)methanone], the IC50 on KRAS WT and at KRAS G12S was under 500 nM throughout.
